Data reported in patent publication US9708314B2, “Heterocyclic amide compound” (NISSAN CHEMICAL INDUSTRIES, LTD., priority 2013, dated 2017).

What was measured:
Type in all cases: in vivo
[1] = tested on: Beta vulgaris ssp. vulgaris; assay: Test Example 4: effect on crop by application to foliage (diluvial soil, plastic box); details: foliage application
Summary of the method: (§1)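 Plants were grown in sterilized diluvial soil in a greenhouse at 25-30° C for 14 days, then sprayed on stems and leaves with water-diluted emulsion formulation at set rates in g/ha. Weed control and crop injury were scored 3 weeks after treatment on a 0-5 herbicidal-ratio scale, from 0 (≤5%) to 5 (≥90%).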

Glycine max = assay: as above; details: foliage application
Summary of the method: as §1

Zea mays = assay: as above; details: foliage application
Summary of the method: as §1

Brassica campestris L. = assay: as above; details: foliage application
Summary of the method: as §1

Triticum aestivum = assay: as above; details: foliage application
Summary of the method: as §1

Setaria viridis = assay: Test Example 4: herbicidal effect by application to foliage (diluvial soil, plastic box); details: foliage application
Summary of the method: as §1

Alopecurus myosuroides = assay: as above; details: foliage application
Summary of the method: as §1

Lolium multiflorum Lam. = assay: as above; details: foliage application
Summary of the method: as §1

Amaranthus retroflexus = assay: as above; details: foliage application
Summary of the method: as §1

Apera spica-venti. = assay: as above; details: foliage application
Summary of the method: as §1

Digitaria ciliaris = assay: as above; details: foliage application
Summary of the method: as §1

Stellaria media = assay: as above; details: foliage application
Summary of the method: as §1

Abutilon theophrasti = assay: as above; details: foliage application
Summary of the method: as §1

[2] = tested on: Echinochloa crus-galli var. crus-galli; assay: as above; details: foliage application
Summary of the method: as §1

Avena fatua = assay: as above; details: foliage application
Summary of the method: as §1

Chenopodium album = assay: as above; details: foliage application
Summary of the method: as §1

Galium spurium = assay: as above; details: foliage application
Summary of the method: as §1

Veronica persica = assay: as above; details: Application herbicide amount 320 g/ha; foliage application
Summary of the method: as §1

Cyperus difformis = assay: Test Example 3: herbicidal effect by application to foliage (Wagner pot, water depth 0.1-0.5 cm); details: Nineteenth Table, application to foliage
Summary of the method: (§2)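 Greenhouse pot test, 25–30 °C, alluvial soil. Sown seedlings grown 14 days then sprayed on leaves and stems with emulsion diluted to target g/ha. Rating at 3 weeks, 0–5 scale (0 ≤5%, 5 ≥90%).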

Leptochloa chinensis = assay: as above; details: Nineteenth Table, application to foliage
Summary of the method: as §2

[3] = tested on: Echinochloa crus-galli var. crus-galli; assay: as above; details: Nineteenth Table, application to foliage
Summary of the method: as §2

[4] = tested on: directly sowed Oryza sativa; assay: Test Example 3: effect on crop by application to foliage (Wagner pot, water depth 0.1-0.5 cm); details: Nineteenth Table, application to foliage
Summary of the method: as §2

[5] = tested on: directly sowed Oryza sativa; assay: Test Example 4: effect on crop by application to foliage (diluvial soil, plastic box); details: foliage application, 131 g/ha
Summary of the method: as §1

[6] = Application herbicide amount 320 g/ha
[7] = application herbicide amount 320 g/ha
[8] = application herbicide amount 131 g/ha

With CC(C)c1nnc2c(C(=O)Nc3nnc(CS(C)(=O)=O)o3)ccc(C(F)(F)F)n12 [1-142] the “f (Beta vulgaris ssp. vulgaris) effect on crop grade” value [1, 6] was 3 (Herbicidal ratio of 40% or more and less than 70%), the “d (Glycine max) effect on crop grade” value (Glycine max; [6]) was 0 (Herbicidal ratio of 5% or less (almost no effect)) and the “c (Zea mays) effect on crop grade” value (Zea mays; [6]) was 0 (Herbicidal ratio of 5% or less (almost no effect)). The “g (Brassica campestris L.) effect on crop grade” value (Brassica campestris L.; [6]) was 0 (Herbicidal ratio of 5% or less (almost no effect)), the “e (Triticum aestivum) effect on crop grade” value (Triticum aestivum; [6]) was 0 (Herbicidal ratio of 5% or less (almost no effect)) and the “G (Setaria viridis) herbicidal effect grade” value (Setaria viridis; [6]) was 0 (Herbicidal ratio of 5% or less (almost no effect)). The “J (Alopecurus myosuroides) herbicidal effect grade” value (Alopecurus myosuroides; [6]) was 0 (Herbicidal ratio of 5% or less (almost no effect)), the “K (Lolium multiflorum Lam.) herbicidal effect grade” value (Lolium multiflorum Lam.; [6]) was 0 (Herbicidal ratio of 5% or less (almost no effect)) and the “N (Amaranthus retroflexus) herbicidal effect grade” value (Amaranthus retroflexus; [6]) was 1 (Herbicidal ratio of 5% or more and less than 20%). For the same compound, the “L (Apera spica-venti.) herbicidal effect grade” value (Apera spica-venti.; [6]) was 0 (Herbicidal ratio of 5% or less (almost no effect)), the “F (Digitaria ciliaris) herbicidal effect grade” value (Digitaria ciliaris; [6]) was 1 (Herbicidal ratio of 5% or more and less than 20%) and the “P (Stellaria media) herbicidal effect grade” value (Stellaria media; [6]) was 2 (Herbicidal ratio of 20% or more and less than 40%). For the same compound, the “M (Abutilon theophrasti) herbicidal effect grade” value (Abutilon theophrasti; [6]) was 0 (Herbicidal ratio of 5% or less (almost no effect)), the “H (Echinochloa crus-galli var. crus-galli) herbicidal effect grade” value [2, 6] was 3 (Herbicidal ratio of 40% or more and less than 70%) and the “I (Avena fatua) herbicidal effect grade” value (Avena fatua; [6]) was 0 (Herbicidal ratio of 5% or less (almost no effect)). For the same compound, the “O (Chenopodium album) herbicidal effect grade” value (Chenopodium album; [6]) was 4 (Herbicidal ratio of 70% or more and less than 90%), the “Q (Galium spurium) herbicidal effect grade” value (Galium spurium; [6]) was 1 (Herbicidal ratio of 5% or more and less than 20%) and the “R (Veronica persica) herbicidal effect grade” value (Veronica persica) was 0 (Herbicidal ratio of 5% or less (almost no effect)). For the same compound, the “E (herbicidal effect grade)” value (Cyperus difformis; [7]) was 0 (Herbicidal ratio of 5% or less (almost no effect)), the “D (herbicidal effect grade)” value (Leptochloa chinensis; [7]) was 1 (Herbicidal ratio of 5% or more and less than 20%) and the “H (herbicidal effect grade)” value [3, 7] was 3 (Herbicidal ratio of 40% or more and less than 70%). The “b (effect on crop grade)” value [4, 7] was 0 (Herbicidal ratio of 5% or less (almost no effect)).

With CC(C)c1nnc2c(C(=O)Nc3nnnn3C)ccc(-c3ccccc3)n12 [2-055] the “d (directly sowed Oryza sativa) effect on crop grade” value [5] was 1 (Herbicidal ratio of 5% or more and less than 20%), the “f (Beta vulgaris ssp. vulgaris) effect on crop grade” value ([1]; 131 g/ha) was 1 (Herbicidal ratio of 5% or more and less than 20%) and the “c (Glycine max) effect on crop grade” value (Glycine max; 131 g/ha) was 0 (Herbicidal ratio of 5% or less (almost no effect)). For the same compound, the “b (Zea mays) effect on crop grade” value (Zea mays; 131 g/ha) was 0 (Herbicidal ratio of 5% or less (almost no effect)), the “g (Brassica campestris L.) effect on crop grade” value (Brassica campestris L.; 131 g/ha) was 0 (Herbicidal ratio of 5% or less (almost no effect)) and the “e (Triticum aestivum) effect on crop grade” value (Triticum aestivum; 131 g/ha) was 0 (Herbicidal ratio of 5% or less (almost no effect)). The “G (Setaria viridis) herbicidal effect grade” value (Setaria viridis; 131 g/ha) was 0 (Herbicidal ratio of 5% or less (almost no effect)), the “J (Alopecurus myosuroides) herbicidal effect grade” value (Alopecurus myosuroides; 131 g/ha) was 0 (Herbicidal ratio of 5% or less (almost no effect)) and the “K (Lolium multiflorum Lam.) herbicidal effect grade” value (Lolium multiflorum Lam.; 131 g/ha) was 0 (Herbicidal ratio of 5% or less (almost no effect)). The “N (Amaranthus retroflexus) herbicidal effect grade” value (Amaranthus retroflexus; 131 g/ha) was 3 (Herbicidal ratio of 40% or more and less than 70%), the “L (Apera spica-venti.) herbicidal effect grade” value (Apera spica-venti.; 131 g/ha) was 0 (Herbicidal ratio of 5% or less (almost no effect)) and the “F (Digitaria ciliaris) herbicidal effect grade” value (Digitaria ciliaris; 131 g/ha) was 0 (Herbicidal ratio of 5% or less (almost no effect)). The “P (Stellaria media) herbicidal effect grade” value (Stellaria media; 131 g/ha) was 4 (Herbicidal ratio of 70% or more and less than 90%), the “M (Abutilon theophrasti) herbicidal effect grade” value (Abutilon theophrasti; 131 g/ha) was 4 (Herbicidal ratio of 70% or more and less than 90%) and the “H (Echinochloa crus-galli var. crus-galli) herbicidal effect grade” value ([2]; 131 g/ha) was 0 (Herbicidal ratio of 5% or less (almost no effect)). For the same compound, the “I (Avena fatua) herbicidal effect grade” value (Avena fatua; 131 g/ha) was 0 (Herbicidal ratio of 5% or less (almost no effect)), the “O (Chenopodium album) herbicidal effect grade” value (Chenopodium album; 131 g/ha) was 5 (Herbicidal ratio of 90% or more (almost completely withered)) and the “Q (Galium spurium) herbicidal effect grade” value (Galium spurium; 131 g/ha) was 0 (Herbicidal ratio of 5% or less (almost no effect)). For the same compound, the “E (herbicidal effect grade)” value (Cyperus difformis; [8]) was 0 (Herbicidal ratio of 5% or less (almost no effect)), the “D (herbicidal effect grade)” value (Leptochloa chinensis; [8]) was 0 (Herbicidal ratio of 5% or less (almost no effect)) and the “H (herbicidal effect grade)” value [3, 8] was 2 (Herbicidal ratio of 20% or more and less than 40%). For the same compound, the “b (effect on crop grade)” value [4, 8] was 0 (Herbicidal ratio of 5% or less (almost no effect)).
